Data published in EP0741132B1, “INDOLE DERIVATIVES” (KYOWA HAKKO KOGYO CO., LTD., priority 1994, dated 1995).

Experiments:
calvaria = test: Inhibitory effect on bone absorption (calcium liberation from PTH enhanced cultured calvaria); format: cell-based; settings: newborn dd mouse calvaria culture, PTH 1 x 10^-8M, 96 hours, total calcium in the culture
Procedure: The calvaria was excised from a newborn dd mouse (5 to 6 days old) under sterile conditions. The calvaria was washed with a modified Dulbecco phosphate buffer physiological saline solution containing neither calcium nor magnesium (a product of Gibco Oriental), and divided into two parts along the center suture. A half of the calvaria was cultivated in a modified Dulbecco Eagle medium (1.5 ml) (a product of Gibco Oriental) containing 2.5% fetal calf serum and 15% equine serum which had been inactivated by heating at 56°C for 20 minutes. The test compound was dissolved in dimethyl sulfoxide and 10 µl of the resulting solution was added to the culture medium to give the final concentrations of 3 x 10^-6M, 1 x 10^-5M, and 3 x 10^-5M. PTH (parathyroid hormone) was dissolved in a 0.15 M saline solution (pH 3) and 3 µl of the resulting solution was added to the culture medium to give the final concentration of 1 x 10^-8M. The culturing was carried out under the condition of 95 % air and 5 % carbon dioxide and at a temperature of 37°C for 96 hours. At 48 hours after the start of the culturing, the culture medium was renewed and the test compound and PTH treated as defined above were added thereto. For examining the effect of the test compound on calcium liberation (bone absorption) from the PTH enhanced bone, a control group, a group using PTH (1 x 10^-8M), and a group using both the test compound (3 x 10^-6M, 1 x 10^-5M, 3 x 10^-5M) and PTH were prepared. The amount of the bone absorption was determined by measuring the amount of calcium accumulated in the culture as collected after 96 hours of culturing. The total calcium concentration in the culture was measured with Calcium C Test Wako. The inhibition rate was calculated using the following equation and the result was shown in terms of 50% inhibitory concentration (IC50). Inhibition of bone absorption from PTH enhanced bone Inhibition rate (%) = [(CP - CD )/(CP - C0 )] x 100 [formula] C0 : The total calcium concentration in the culture containing neither the test compound nor PTH. CP : The total calcium concentration in the culture treated with only PTH. CD : The total calcium concentration in the culture treated . with both the test compound and PTH.

bone density = test: Inhibitory effect on decrease of bone density by ovariectomy; format: in vivo; settings: ovariectomized female SD strain rats, 10 mg/kg orally once a day for 3 weeks, right hindlimb, DEXA (DXA) method
Procedure: The experiment was carried out using 10-weeks-old female SD strain rats (Charles River Japan Inc.) The ovaries on both sides of the rats were excised under anesthesia using Nembutal. The test compound (10 mg/kg) was dissolved or suspended in distilled water for injection (a product of Otsuka Pharmaceutical Co., Ltd.) and administered orally once a day from the first day after the operation for 3 weeks. For the control group, distilled water for injection alone was administered. The rat was slaughtered by neck dislocation, the right hindlimb was ablated, and then the bone density of the neck was measured according to a DEXA (DXA) method [Japan Clinic, 52 (9), 2329-2334 (1994)] using bone mineral measuring apparatus DCS-600 (a product of Aloka Co., Ltd.) The inhibition rate of decrease in the bone density of the test compound-administered group was calculated from the decrease of the bone density in the test compound-administered group and that in the control group.

| SMILES | IC50 (calvaria) [µM] | Inhibition rate of decrease in bone density (%) (bone density) |
| --- | --- | --- |
| CN(C)CCn1c(C(=O)NC2CCCCCC2)c(C(c2ccc(O)cc2)c2ccc(O)cc2)c2ccccc21 [Compound 14, N-Cycloheptyl-3-[bis (4-hydroxyphenyl)methyl]-1-(2-dimethylaminoethyl)indole-2-carboxamide methanesulfonate] | 11.9 | – |
| CCCNC(=O)c1c(C(c2ccc(O)cc2)c2ccc(O)cc2)c2ccccc2n1CCN(C)C [Compound 11, N-Propyl-3-[bis(4-hydroxyphenyl)methyl]-1-(2-dimethylaminoethyl)indole-2-carboxamide methanesulfonate] | > 30 | – |
| CN(C)CCn1c(C(=O)N2CCCCC2)c(C(c2ccc(O)cc2)c2ccc(O)cc2)c2ccccc21 [Compound 13, 1-{3-[Bis(4-hydroxyphenyl)methyl]-1-(2-dimethylaminoethyl)indol-2-ylcarbonyl)piperidine methanesulfonate] | 15 | – |
| O=C(c1[nH]c2ccccc2c1C(c1ccc(O)cc1)c1ccc(O)cc1)N1CCN(c2ccccc2Cl)CC1 [Compound 8, 1-{3-[Bis(4-hydroxyphenyl)methyl]indol-2-ylcarbonyl}-4-(2-chloroghenyl)piperazine] | > 30 | – |
| CC(C)NC(=O)c1c(C(c2ccc(O)cc2)c2ccc(O)cc2)c2ccccc2n1CCN(C)C [Compound 12, N-Isopropyl-3-[bis(4-hydroxyphenyl)methyl]-1-(2-dimethylaminoethyl)indole-2-carboxamide methanesulfonate] | > 30 | – |

Now those with a lower IC50 (calvaria), led by results:

| IC50 (calvaria) [µM] | SMILES | Inhibition rate of decrease in bone density (%) (bone density) |
| --- | --- | --- |
| 11.5 | CN(C)CCn1c(C(=O)N2CCN(c3ccccc3Cl)CC2)c(C(c2ccc(O)cc2)c2ccc(O)cc2)c2ccccc21.CS(=O)(=O)O [Compound 9, 1-{3-[Bis(4-hydroxyphenyl)methyl]-1-(2-dimethylaminoethyl)indol-2-ylcarbonyl}-4-(2-chlorophenyl)piperazine methanesulfonate] | 97 |
| 9.6 | CS(=O)(=O)O.O=C(c1c(C(c2ccc(O)cc2)c2ccc(O)cc2)c2ccccc2n1CCN1CCOCC1)N1CCN(c2ccccc2Cl)CC1 [Compound 10, 1-{3-[Bis(4-hydroxyphenyl)methyl]-1-(2-morpholinoethyl)indol-2-ylcarbonyl}-4-(2-chlorophenyl)-piperazine methanesulfonate] | 33 |
